For four compounds, Ki results are on record in ChEMBL document CHEMBL1806363, “New substrate analogue furin inhibitors derived from 4-amidinobenzylamide” (Bioorg Med Chem Lett, 2011).

Furin, sequence (P09958 whole entry): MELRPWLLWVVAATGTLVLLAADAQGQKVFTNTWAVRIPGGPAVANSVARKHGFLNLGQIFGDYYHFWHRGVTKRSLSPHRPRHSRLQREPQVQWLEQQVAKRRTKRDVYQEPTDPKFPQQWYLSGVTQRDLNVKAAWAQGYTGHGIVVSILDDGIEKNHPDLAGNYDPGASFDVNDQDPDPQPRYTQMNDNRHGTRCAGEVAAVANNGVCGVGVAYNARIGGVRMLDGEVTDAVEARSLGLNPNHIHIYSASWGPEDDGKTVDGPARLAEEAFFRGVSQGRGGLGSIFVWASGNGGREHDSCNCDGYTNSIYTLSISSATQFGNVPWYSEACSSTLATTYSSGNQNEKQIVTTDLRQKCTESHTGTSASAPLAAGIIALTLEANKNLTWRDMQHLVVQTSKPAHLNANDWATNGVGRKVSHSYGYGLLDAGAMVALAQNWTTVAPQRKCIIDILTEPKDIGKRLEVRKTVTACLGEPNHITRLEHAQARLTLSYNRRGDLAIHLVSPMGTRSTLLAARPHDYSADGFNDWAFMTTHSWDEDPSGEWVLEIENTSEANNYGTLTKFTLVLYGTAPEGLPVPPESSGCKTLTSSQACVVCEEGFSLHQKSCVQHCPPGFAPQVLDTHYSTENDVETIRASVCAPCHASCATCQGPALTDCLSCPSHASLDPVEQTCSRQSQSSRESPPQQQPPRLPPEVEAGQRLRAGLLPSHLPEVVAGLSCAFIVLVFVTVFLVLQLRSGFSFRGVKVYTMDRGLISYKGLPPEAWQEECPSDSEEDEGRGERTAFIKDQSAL

The experiment concerns the target Furin (Homo sapiens, UniProt P09958). The experiment can be described thus: Inhibition of recombinant human furin expressed in CHO cells using pyroGlu- Arg-Thr-Lys-Arg-AMC as the substrate after 30 mins. Format: cell-based.
With `CC(C)[C@H](NC(=O)Cc1ccccc1)C(=O)N[C@H](CCCN=C(N)N)C(=O)N[C@@H](CCCN=C(N)N)C(=O)NCc1ccc(C(=N)N)cc1`, the Ki stood at 7340 nM.

As to `NC(N)=NCCC[C@H](NC(=O)[C@@H](CCCN=C(N)N)NC(=O)Cc1ccccc1)C(=O)O`, the Ki is 3200 nM.

As for `CC(C)[C@H](NC(=O)[C@H](CCCN=C(N)N)NC(=O)Cc1ccccc1)C(=O)N[C@@H](CCCCN)C(=O)NCc1ccc(C(=N)N)cc1`, the Ki was 1.5 nM.

As for `N=C(N)c1ccc(CNC(=O)[C@H](CCCCN)NC(=O)[C@H](CN)NC(=O)[C@H](CCCN=C(N)N)NC(=O)Cc2ccccc2)cc1`, the Ki was 3.7 nM.
